# Laboratory results from US20050043326A1, “Compounds” (Pfizer Inc, priority 2003, published 2005).
# Experiments:
# PDE4 = PDE4 inhibition: hydrolysis of tritium labelled cAMP to AMP, SPA bead scintillation counting; format: biochemical; settings: tritium labelled cAMP incubated with PDE4, yttrium silicate SPA beads
# Description: The PDE4 inhibitory activity of the nicotinamide derivatives of the formula (I) is determined by the ability of compounds to inhibit the hydrolysis of cAMP to AMP by PDE4 (Thompson J W, Teraski W L, Epstein P M, Strada S J., “Assay of nucleotidephosphodiesterase and resolution of multiple molecular forms of the isoenzyme”, Advances in cyclic nucleotides research, edited by Brooker G, Greengard P, Robinson G A. Raven Press, New York 1979, 10, p. 69-92). Tritium labelled cAMP is incubated with PDE4. Following incubation, the radiolabelled AMP produced is able to bind yttrium silicate SPA beads. These SPA beads subsequently produce light that can be quantified by scintillation counting. The addition of a PDE4 inhibitor prevents the formation of AMP from cAMP and counts are diminished. The IC50 of a PDE4 inhibitor can be defined as the concentration of a compound that leads to a 50% reduction in counts compared to the PDE4 only (no inhibitor) control wells.
# (§1) Data are presented below for the Examples in which the TNFα and PDE4 inhibition are presented as IC50 values in nM.
# [1] = system: TNFα release from human peripheral blood mononuclear cells; experiment: Inhibition of TNFα release from LPS-stimulated human peripheral blood mononuclear cells (TNFα screen); format: cell-based; settings: PBMC, 18 hours incubation, TNFα in supernatant by ELISA
# Description: Venous blood is collected from healthy volunteers and the mononuclear cells purified by centrifugation through Histopaque (Ficoll) cushions. TNFα production from these cells is stimulated by addition of lipopolysaccharide. After 18 hours incubation in the presence of LPS, the cell supernatant is removed and the concentration of TNFα in the supernatant determined by ELISA.
# as §1
IC50 (PDE4) [nM],IC50 [1] [nM],Compound
1.8,0.02,O=C(N[C@H]1CC[C@@H](NS(=O)(=O)c2cccc3cccnc23)CC1)c1cccnc1OC1CCSCC1 [Example 65]
3.5,1,"O=C(N[C@H]1CC[C@@H](NS(=O)(=O)c2c(O)ccc3nsnc23)CC1)c1cc(F)cnc1OC1CCSCC1 [Example 74, Syn-5-Fluoro-N-[4-(5-hydroxy-benzo[1,2,5]thiadiazole-4-sulfonylamino)-cyclohexyl]-2-(tetrahydro-thiopyran-4-yloxy)-nicotinamide]"
